Data published in ChEMBL document CHEMBL1201862, “PubChem BioAssay data set” (2004).
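96-well plates; 48 h exposure; 5 concentrations. Endpoints by linear interpolation between flanking doses. Not reached: highest tested concentration assigned. The concentration for 50% growth inhibition is given as GI50.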 Activity calls are given as the source filed them. No stated cut-off is given here; in the data, active = GI50 up to about 1.1 µM and inactive = higher.

Assays:
Experiment in all cases: inhibition of tumour cell growth, NCI panel, 48 h
786-0 = test system: 786-0
A498 = test system: A498
A549 = test system: A549
ACHN = test system: ACHN
CCRF-CEM = test system: CCRF-CEM
COLO 205 = test system: COLO 205
DLD-1 = test system: DLD-1
DMS-114 = test system: DMS-114
DMS-273 = test system: DMS-273
EKVX = test system: EKVX
HCC 2998 = test system: HCC 2998
HCT-116 = test system: HCT-116
HCT-15 = test system: HCT-15
HL-60 = test system: HL-60
HOP-18 = test system: HOP-18
HOP-62 = test system: HOP-62
HOP-92 = test system: HOP-92
HT-29 = test system: HT-29
IGROV-1 = test system: IGROV-1
K562 = test system: K562
KM-20L2 = test system: KM-20L2
KM12 = test system: KM12
LOX IMVI = test system: LOX IMVI
LXFL 529 = test system: LXFL 529
M14 = test system: M14
M19-MEL = test system: M19-MEL
MOLT-4 = test system: MOLT-4
Malme-3M = test system: Malme-3M
NCI-H226 = test system: NCI-H226
NCI-H23 = test system: NCI-H23
NCI-H460 = test system: NCI-H460
NCI-H522 = test system: NCI-H522
OVCAR-3 = test system: OVCAR-3
OVCAR-4 = test system: OVCAR-4
OVCAR-8 = test system: OVCAR-8
RPMI-8226 = test system: RPMI-8226
RXF 393 = test system: RXF 393
SF-268 = test system: SF-268
SF-295 = test system: SF-295
SF-539 = test system: SF-539
SK-MEL-28 = test system: SK-MEL-28
SK-MEL-2 = test system: SK-MEL-2
SK-OV-3 = test system: SK-OV-3
SN12C = test system: SN12C
SNB-19 = test system: SNB-19
SNB-75 = test system: SNB-75
SNB-78 = test system: SNB-78
SR = test system: SR
SW-620 = test system: SW-620
TK-10 = test system: TK-10
U-251 = test system: U-251
UACC-257 = test system: UACC-257
UACC-62 = test system: UACC-62
UO-31 = test system: UO-31
XF498 = test system: XF498
BT-549 = test system: BT-549
CAKI-1 = test system: CAKI-1
DU-145 = test system: DU-145
Hs-578T = test system: Hs-578T
MCF7 = test system: MCF7
MDA-MB-231 = test system: MDA-MB-231
MDA-MB-435 = test system: MDA-MB-435
MDA-N = test system: MDA-N
NCI/ADR-RES = test system: NCI/ADR-RES
OVCAR-5 = test system: OVCAR-5
PC-3 = test system: PC-3
SK-MEL-5 = test system: SK-MEL-5
T47D = test system: T47D

COc1ccc(-c2nnc(-c3c(C)n(C)n(-c4ccccc4)c3=O)o2)cc1
GI50 (786-0): > 100 µM (inactive)
GI50 (A498): > 100 µM (inactive)
GI50 (A549): > 100 µM (inactive)
GI50 (ACHN): > 100 µM (inactive)
GI50 (CCRF-CEM): > 100 µM (inactive)
GI50 (COLO 205): > 100 µM (inactive)
GI50 (DLD-1): > 100 µM (inactive)
GI50 (DMS-114): > 100 µM (inactive)
GI50 (DMS-273): > 100 µM (inactive)
GI50 (EKVX): > 100 µM (inactive)
GI50 (HCC 2998): > 100 µM (inactive)
GI50 (HCT-116): > 100 µM (inactive)
GI50 (HCT-15): > 100 µM
GI50 (HL-60): > 100 µM (inactive)
GI50 (HOP-18): > 100 µM (inactive)
GI50 (HOP-62): > 100 µM (inactive)
GI50 (HOP-92): > 100 µM (inactive)
GI50 (HT-29): > 100 µM (inactive)
GI50 (IGROV-1): > 100 µM (inactive)
GI50 (K562): > 100 µM (inactive)
GI50 (KM-20L2): > 100 µM (inactive)
GI50 (KM12): > 100 µM (inactive)
GI50 (LOX IMVI): > 100 µM (inactive)
GI50 (LXFL 529): > 100 µM (inactive)
GI50 (M14): > 100 µM (inactive)
GI50 (M19-MEL): > 100 µM (inactive)
GI50 (MOLT-4): > 100 µM (inactive)
GI50 (Malme-3M): > 100 µM (inactive)
GI50 (NCI-H226): > 100 µM (inactive)
GI50 (NCI-H23): > 100 µM (inactive)
GI50 (NCI-H460): > 100 µM (inactive)
GI50 (NCI-H522): > 100 µM (inactive)
GI50 (OVCAR-3): > 100 µM (inactive)
GI50 (OVCAR-4): > 100 µM (inactive)
GI50 (OVCAR-8): > 100 µM (inactive)
GI50 (RPMI-8226): > 100 µM (inactive)
GI50 (RXF 393): > 100 µM (inactive)
GI50 (SF-268): > 100 µM (inactive)
GI50 (SF-295): > 100 µM (inactive)
GI50 (SF-539): > 100 µM (inactive)
GI50 (SK-MEL-28): > 100 µM (inactive)
GI50 (SK-MEL-2): > 100 µM (inactive)
GI50 (SK-OV-3): > 100 µM (inactive)
GI50 (SN12C): > 100 µM (inactive)
GI50 (SNB-19): > 100 µM (inactive)
GI50 (SNB-75): > 100 µM (inactive)
GI50 (SNB-78): 68.7 µM (inactive)
GI50 (SR): > 100 µM (inactive)
GI50 (SW-620): > 100 µM (inactive)
GI50 (TK-10): > 100 µM (inactive)
GI50 (U-251): > 100 µM (inactive)
GI50 (UACC-257): > 100 µM (inactive)
GI50 (UACC-62): > 100 µM (inactive)
GI50 (UO-31): > 100 µM (inactive)
GI50 (XF498): > 100 µM (inactive)

COc1cc(/C=C/c2ccc(C)cc2)cc(OC)c1OC
GI50 (786-0): 3.87 µM (inactive)
GI50 (A549): 4.27 µM (inactive)
GI50 (ACHN): 6.31 µM (inactive)
GI50 (BT-549): 5.68 µM (inactive)
GI50 (CAKI-1): 5.9 µM (inactive)
GI50 (CCRF-CEM): 3.45 µM (inactive)
GI50 (COLO 205): 3.16 µM (inactive)
GI50 (DLD-1): 4.06 µM (inactive)
GI50 (DMS-114): 5.9 µM (inactive)
GI50 (DMS-273): 3.79 µM (inactive)
GI50 (DU-145): 3.01 µM (inactive)
GI50 (EKVX): 4.7 µM (inactive)
GI50 (HCC 2998): 4.82 µM (inactive)
GI50 (HCT-116): 3.3 µM (inactive)
GI50 (HCT-15): 4.08 µM
GI50 (HL-60): 2.97 µM (inactive)
GI50 (HOP-18): 11.4 µM (inactive)
GI50 (HOP-62): 4.18 µM (inactive)
GI50 (HOP-92): 9.33 µM (inactive)
GI50 (HT-29): 2.69 µM (inactive)
GI50 (Hs-578T): 2.56 µM (inactive)
GI50 (IGROV-1): 5.11 µM (inactive)
GI50 (K562): 3.1 µM (inactive)
GI50 (KM-20L2): 2.09 µM (inactive)
GI50 (KM12): 3.66 µM (inactive)
GI50 (LOX IMVI): 6.14 µM (inactive)
GI50 (LXFL 529): 5.58 µM (inactive)
GI50 (M14): 3.56 µM (inactive)
GI50 (M19-MEL): 9.98 µM (inactive)
GI50 (MCF7): 3.46 µM (inactive)
GI50 (MDA-MB-231): 5 µM (inactive)
GI50 (MDA-MB-435): 1.14 µM (inactive)
GI50 (MDA-N): 0.895 µM (active)
GI50 (MOLT-4): 3.91 µM (inactive)
GI50 (Malme-3M): 4.35 µM (inactive)
GI50 (NCI-H226): 4.29 µM (inactive)
GI50 (NCI-H23): 2.9 µM (inactive)
GI50 (NCI-H460): 3.85 µM (inactive)
GI50 (NCI-H522): 2.25 µM (inactive)
GI50 (NCI/ADR-RES): 2.07 µM (inactive)
GI50 (OVCAR-3): 2.48 µM (inactive)
GI50 (OVCAR-4): 17.3 µM (inactive)
GI50 (OVCAR-5): 12.7 µM (inactive)
GI50 (OVCAR-8): 4.43 µM (inactive)
GI50 (PC-3): 2.67 µM (inactive)
GI50 (RPMI-8226): 3.8 µM (inactive)
GI50 (RXF 393): 4.42 µM (inactive)
GI50 (SF-268): 5.37 µM (inactive)
GI50 (SF-295): 2.54 µM (inactive)
GI50 (SF-539): 2.42 µM (inactive)
GI50 (SK-MEL-28): 5.77 µM (inactive)
GI50 (SK-MEL-2): 7.18 µM (inactive)
GI50 (SK-MEL-5): 3.85 µM (inactive)
GI50 (SK-OV-3): 6.84 µM (inactive)
GI50 (SN12C): 4.57 µM (inactive)
GI50 (SNB-19): 4.21 µM (inactive)
GI50 (SNB-75): 2.58 µM (inactive)
GI50 (SNB-78): 2.14 µM (inactive)
GI50 (SR): 2.52 µM (inactive)
GI50 (SW-620): 4.29 µM (inactive)
GI50 (T47D): 4.1 µM (inactive)
GI50 (TK-10): 7.69 µM (inactive)
GI50 (U-251): 3.78 µM (inactive)
GI50 (UACC-257): 6.97 µM (inactive)
GI50 (UACC-62): 3.44 µM (inactive)
GI50 (UO-31): 4.49 µM (inactive)
GI50 (XF498): 6.49 µM (inactive)
